These results are taken from ChEMBL document CHEMBL4840359, “N-Terminus to Arginine Side-Chain Cyclization of Linear Peptidic Neuropeptide Y Y4 Receptor Ligands Results in Picomolar Binding Constants” (J Med Chem, 2021).

Bounds are passed on as bounds.

Data set [1] is described as follows: Inhibition of ACE (unknown origin). More on the design: species or system Homo sapiens.
In data set [2] the target is T1, Neuropeptide Y receptor type 4 (Homo sapiens, UniProt P50391). As to the kind of experiment: Agonist activity at human neuropeptide Y Y4 receptor expressed in HEK293T-ARRB2 cells assessed as stimulation of beta-arrestin 2 recruitment by multimode plate reader. It counts as functional, cell-based. On the technique in general: Arrestin recruitment assays detect the binding of arrestin to an activated receptor.

The target in data set [3] is T1, Neuropeptide Y receptor type 4. As to the kind of experiment: Intrinsic activity at human neuropeptide Y Y4 receptor expressed in HEK293T-ARRB2 cells assessed as stimulation of beta-arrestin 2 recruitment by multimode plate reader relative to hPP. The format is functional, cell-based.
Data set [4] concerns the target T2, Neuropeptide Y receptor type 1 (Homo sapiens, UniProt P25929).
T2 sequence (P25929 whole entry): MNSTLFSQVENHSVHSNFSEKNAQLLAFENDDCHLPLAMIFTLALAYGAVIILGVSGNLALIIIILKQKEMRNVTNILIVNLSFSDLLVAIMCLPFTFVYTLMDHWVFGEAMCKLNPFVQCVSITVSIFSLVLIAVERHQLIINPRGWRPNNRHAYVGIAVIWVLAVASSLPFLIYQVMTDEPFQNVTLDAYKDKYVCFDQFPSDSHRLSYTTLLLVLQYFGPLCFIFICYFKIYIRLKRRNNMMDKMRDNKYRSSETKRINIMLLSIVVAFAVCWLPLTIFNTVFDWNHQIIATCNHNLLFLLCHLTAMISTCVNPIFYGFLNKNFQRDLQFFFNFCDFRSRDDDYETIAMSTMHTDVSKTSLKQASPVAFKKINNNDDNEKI
As to the kind of experiment: Displacement of [3H]UR-MK299 from human neuropeptide Y Y1 receptor in human SK-N-MC cells measured after 90 mins by scintillation counting analysis. It counts as cell-based. On the technique in general: In a radioligand displacement assay an active substance lowers the binding of a labelled ligand.

Data set [5] in a line: Stability in human plasma assessed as intact peptide measured after 30 mins at 37 degC by RP-HPLC analysis. The format is ADME, cell-free. Conditions: read-out: Stability.
Data set [6] has as its target T1, Neuropeptide Y receptor type 4. As to the kind of experiment: Displacement of [3H]UR-KK200 from human neuropeptide Y Y4 receptor expressed in CHO-mtAEQ cells co-expressing Gqi5 assessed as fold change in affinity measured after 90 mins by scintillation counting analysis relative to Ac-Arg-Tyr-Arg-Leu-Arg-Tyr-NH2. The format is cell-based. Conditions: filed as agonist.

Data set [7] has the same target. As to the kind of experiment: Agonist activity at human neuropeptide Y Y4 receptor expressed in CHO-mtAEQ cells co-expressing Gqi5 by calcium aequorin assay. It counts as functional, cell-based.
Data set [8] in a line: Stability in human plasma assessed as intact peptide in presence of rami-pril measured at 50 uM after 24 hrs at 37 degC by LC-HRMS analysis. The format is ADME, cell-free.
A short description of data set [9]: Stability in human plasma assessed as intact peptide measured after 6 hr at 37 degC by RP-HPLC analysis. It counts as ADME, cell-free. Conditions: read-out: Stability.
Data set [10] deals with T3, Neuropeptide Y receptor type 2 (Homo sapiens, UniProt P49146).
T3 sequence (P49146 whole entry): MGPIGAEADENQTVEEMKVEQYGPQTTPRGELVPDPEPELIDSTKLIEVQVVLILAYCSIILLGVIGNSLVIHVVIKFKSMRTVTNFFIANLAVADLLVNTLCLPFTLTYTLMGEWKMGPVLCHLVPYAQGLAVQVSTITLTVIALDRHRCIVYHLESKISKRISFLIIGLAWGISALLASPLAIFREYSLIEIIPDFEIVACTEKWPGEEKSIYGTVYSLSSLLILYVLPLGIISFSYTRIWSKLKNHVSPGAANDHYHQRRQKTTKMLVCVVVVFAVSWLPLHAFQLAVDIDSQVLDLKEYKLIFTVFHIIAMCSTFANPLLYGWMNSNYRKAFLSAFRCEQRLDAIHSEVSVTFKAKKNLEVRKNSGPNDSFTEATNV
As to the kind of experiment: Displacement of [3H]UR-MK299 from human neuropeptide Y Y2 receptor expressed in CHO cells measured after 90 mins by scintillation counting analysis. The format is cell-based.

In data set [11] the target is T1, Neuropeptide Y receptor type 4. As to the kind of experiment: Intrinsic activity at human neuropeptide Y Y4 receptor expressed in HEK293T-ARRB1 cells assessed as stimulation of beta-arrestin 1 recruitment by multimode plate reader relative to hPP. The format is functional, cell-based.
Data set [12] has the same target. As to the kind of experiment: Agonist activity at human neuropeptide Y Y4 receptor expressed in HEK293T cells co-expressing CRE-controlled gene reporter firefly luciferase assessed as relative luminescence measured after 15 mins. It counts as functional, cell-based.
For data set [13] the target is unchanged. As to the kind of experiment: Displacement of [3H]UR-KK200 from human neuropeptide Y Y4 receptor expressed in CHO-mtAEQ cells co-expressing Gqi5 measured after 90 mins by scintillation counting analysis. The format is cell-based.
The nature of data set [14]: Stability in human plasma assessed as half life at 37 degC by RP-HPLC analysis. It counts as ADME, cell-free.
A short description of data set [15]: Stability in human plasma assessed as intact peptide measured after 24 hrs at 37 degC by RP-HPLC analysis. Conditions: read-out: Stability. It counts as ADME, cell-free.
The target in data set [16] is T1, Neuropeptide Y receptor type 4. As to the kind of experiment: Agonist activity at human neuropeptide Y Y4 receptor expressed in HEK293T-ARRB1 cells assessed as stimulation of beta-arrestin 1 recruitment by multimode plate reader. It counts as functional, cell-based. As to conditions: read-out: EC50.
For data set [17], the target named is T4, Neuropeptide Y receptor type 5 (Homo sapiens, UniProt Q15761).
T4 sequence (Q15761 whole entry): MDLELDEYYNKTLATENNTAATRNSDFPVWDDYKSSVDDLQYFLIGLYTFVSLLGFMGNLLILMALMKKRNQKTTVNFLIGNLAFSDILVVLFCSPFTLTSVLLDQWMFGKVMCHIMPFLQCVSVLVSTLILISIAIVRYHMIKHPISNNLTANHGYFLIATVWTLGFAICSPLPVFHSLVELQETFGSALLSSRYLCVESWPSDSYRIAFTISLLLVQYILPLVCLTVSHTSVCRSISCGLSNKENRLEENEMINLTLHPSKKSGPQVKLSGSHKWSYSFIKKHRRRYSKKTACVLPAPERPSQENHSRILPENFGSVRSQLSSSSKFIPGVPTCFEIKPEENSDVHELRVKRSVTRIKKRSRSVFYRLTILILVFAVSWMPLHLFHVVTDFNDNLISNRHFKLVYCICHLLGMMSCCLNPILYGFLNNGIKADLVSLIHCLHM
As to the kind of experiment: Displacement of [3H]propionyl-pNPY from human neuropeptide Y Y5 receptor in human HEC-1B cells measured after 90 mins by scintillation counting analysis. As to conditions: read-out: pKi (converted). It counts as cell-based, HEC-1B cell line.

For data set [18], the species on record is Homo sapiens. As to the kind of experiment: Selectivity ratio, Ki for displacement of [3H]UR-MK299 from human neuropeptide Y Y2 receptor expressed in CHO cells measured after 90 mins by scintillation counting analysis to Ki for displacement of [3H]UR-KK200 from human neuropeptide Y Y4 receptor expressed in CHO-mtAEQ cells co-expressing Gqi5 measured after 90 mins by scintillation counting analysis. The format is cell-based.

Data set [19] deals with T1, Neuropeptide Y receptor type 4. As to the kind of experiment: Intrinsic activity at human neuropeptide Y Y4 receptor expressed in HEK293T cells co-expressing CRE-controlled gene reporter firefly luciferase assessed as relative luminescence measured after 15 mins relative to hPP. It counts as functional, cell-based.
Data set [20] can be described thus: Stability in human plasma assessed as intact peptide measured after 2 hr at 37 degC by RP-HPLC analysis. The format is ADME, cell-free. Conditions: read-out: Stability.
Data set [21] concerns the target T1, Neuropeptide Y receptor type 4. As to the kind of experiment: Intrinsic activity at human neuropeptide Y Y4 receptor expressed in CHO-mtAEQ cells co-expressing Gqi5 by calcium aequorin assay. The format is functional, cell-based.
Data set [22] is filed under the species Homo sapiens. As to the kind of experiment: Selectivity ratio, Ki for displacement of [3H]propionyl-pNPY from human neuropeptide Y Y5 receptor in human HEC-1B cells measured after 90 mins by scintillation counting analysis to Ki for displacement of [3H]UR-KK200 from human neuropeptide Y Y4 receptor expressed in CHO-mtAEQ cells co-expressing Gqi5 measured after 90 mins by scintillation counting analysis. It counts as cell-based.

Data set [23] is filed under the species Homo sapiens. As to the kind of experiment: Selectivity ratio, Ki for displacement of [3H]UR-MK299 from human neuropeptide Y Y1 receptor in human SK-N-MC cells measured after 90 mins by scintillation counting analysis to Ki for displacement of [3H]UR-KK200 from human neuropeptide Y Y4 receptor expressed in CHO-mtAEQ cells co-expressing Gqi5 measured after 90 mins by scintillation counting analysis. The format is cell-based.

T1 sequence (P50391 whole entry): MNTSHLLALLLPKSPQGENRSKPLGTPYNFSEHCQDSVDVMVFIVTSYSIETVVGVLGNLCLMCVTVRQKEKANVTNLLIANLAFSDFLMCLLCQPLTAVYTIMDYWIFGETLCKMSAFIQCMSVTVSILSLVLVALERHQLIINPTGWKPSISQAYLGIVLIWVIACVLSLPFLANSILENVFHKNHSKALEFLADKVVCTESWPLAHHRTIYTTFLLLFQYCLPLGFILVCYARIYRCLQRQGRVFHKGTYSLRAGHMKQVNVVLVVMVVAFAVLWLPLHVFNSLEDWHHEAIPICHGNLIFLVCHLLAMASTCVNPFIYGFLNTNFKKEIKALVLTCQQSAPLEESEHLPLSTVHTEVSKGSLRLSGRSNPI

By pIC50 is commonly meant the IC50 on a negative log10 scale, so that one unit is a factor of ten. A low value points to a high IC50. `CCOC(=O)[C@H](CCc1ccccc1)N[C@@H](C)C(=O)N1[C@H](C(=O)O)C[C@@H]2CCC[C@@H]21` yielded a negative-log IC50 (pIC50) in data set [1] of 7.6.

The EC50 is the concentration giving half of the maximal effect. Broadly, the half-life is the time in which the quantity being followed falls by half. `CC(C)C[C@H](NC(=O)[C@H](CCCNC(=N)NC(=O)NCCCCN)NC(=O)[C@H](Cc1ccc(O)cc1)NC(=O)[C@H](CCCNC(=N)N)NC(=O)CCC(=O)O)C(=O)N[C@@H](CCCNC(=N)N)C(=O)N[C@@H](Cc1ccc(O)cc1)C(N)=O`: the EC50 in [2] was 141 nM; in data set [7], 204 nM; in data set [12] it was 17 nM; in [16] it was 160 nM. The Intrinsic activity in data set [3] worked out at 83%; in [11], 75%; in data set [19], 88%; in data set [21], 70%. Moreover, the Ki in [4] (read-out: pKi (converted)) was above 10000 nM; in data set [4] (sk-n-mc, read-out: Ki), above 10000 nM; in data set [10] (read-out: Ki) it was above 10000 nM; in data set [10] (read-out: pKi (converted)) it was above 10000 nM; in [13] (read-out: Ki), 13 nM; in data set [13] (read-out: pKi (converted)) it was 1.26 nM. Besides, the Ki in data set [17] was above 10000 nM. In addition, in data set [5], the remaining at 0.5 h is above 99%. The fold change (FC) in data set [6] was 2.6. Further, the Stability entry in [8] is “Stable”. Further, the remaining at 6 h in data set [9] turned out to be 49%. The half-life in [14] was 5.9 h. For the same compound, the remaining at 24 h in data set [15] was 3%. In addition, the Selectivity ratio in the data set filed under Homo sapiens [18], in the data set listed under Homo sapiens [22] and in the data set filed under Homo sapiens [23] was above 7600 throughout. The remaining at 2 h in data set [20] stood at 91%.

`CC(C)C[C@H](NC(=O)[C@H](CCCNC(=N)NC(=O)NCCCCN)NC(=O)[C@H](Cc1c[nH]c2ccccc12)NC(=O)[C@H](CCCNC(=N)N)NC(=O)CCC(=O)O)C(=O)N[C@@H](CCCNC(=N)N)C(=O)N[C@@H](Cc1ccc(O)cc1)C(N)=O`: the EC50 in [2] is 162 nM; in [7], 105 nM; in [12] it was 12 nM; in data set [16], 120 nM. Also, the Intrinsic activity in [3] turned out to be 76%; in data set [11], 67%; in data set [19] it was 95%; in data set [21], 67%. The Ki was above 10000 nM in data set [4] (read-out: pKi (converted)); above 10000 nM in data set [4] (sk-n-mc, read-out: Ki); above 3000 nM in data set [10] (read-out: Ki); above 3160 nM in data set [10] (read-out: pKi (converted)); 2.1 nM in data set [13] (read-out: Ki); 1.95 nM in data set [13] (read-out: pKi (converted)). Besides, the Ki in data set [17] is above 10000 nM. Also, in [5], the remaining at 0.5 h came out at 94%. Further, in [6], the fold change (FC) was found to be 1.6. The Stability result in data set [8] is given as “Stable”. Moreover, the remaining at 6 h in data set [9] was 67%. In addition, the half-life in data set [14] was 7.9 h. Besides, the remaining at 24 h in [15] stood at 3%. Moreover, the Selectivity ratio is above 1400 in the data set listed under Homo sapiens [18], above 4700 in the data set filed under Homo sapiens [22] and above 4700 in the data set filed under Homo sapiens [23]. For the same compound, in data set [20], the remaining at 2 h amounted to 87%.
